# pKd: −log10 of the molar value.
# Experiments:
# Assay type in all cases: binding
# [1] = target: T1, ALA1 Loop2 (410–914 aa) (Arabidopsis thaliana, UniProt P98204); experiment: bio-layer interferometry, POPC background subtracted; conditions: 3% lipid in POPC liposomes; HEPES pH 7.5, 100 mM NaCl
# T1 sequence (P98204 410-914): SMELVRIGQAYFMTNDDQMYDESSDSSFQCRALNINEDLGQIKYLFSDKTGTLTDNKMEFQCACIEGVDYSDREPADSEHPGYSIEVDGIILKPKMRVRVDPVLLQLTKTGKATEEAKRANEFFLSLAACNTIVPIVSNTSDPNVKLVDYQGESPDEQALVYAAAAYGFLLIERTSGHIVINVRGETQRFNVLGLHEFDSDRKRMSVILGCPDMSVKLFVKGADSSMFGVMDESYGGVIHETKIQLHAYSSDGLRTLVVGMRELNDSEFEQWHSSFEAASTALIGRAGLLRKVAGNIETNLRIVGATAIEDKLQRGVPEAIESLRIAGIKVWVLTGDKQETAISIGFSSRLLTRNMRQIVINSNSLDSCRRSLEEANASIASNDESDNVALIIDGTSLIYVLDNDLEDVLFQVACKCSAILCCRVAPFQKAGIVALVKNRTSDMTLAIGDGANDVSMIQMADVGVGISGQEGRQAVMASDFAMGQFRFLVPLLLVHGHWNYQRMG
# [2] = target: T2, DRP1A (Arabidopsis thaliana, UniProt P42697); experiment: bio-layer interferometry, liposome-loaded APS sensor
# T2 sequence (P42697 1-610): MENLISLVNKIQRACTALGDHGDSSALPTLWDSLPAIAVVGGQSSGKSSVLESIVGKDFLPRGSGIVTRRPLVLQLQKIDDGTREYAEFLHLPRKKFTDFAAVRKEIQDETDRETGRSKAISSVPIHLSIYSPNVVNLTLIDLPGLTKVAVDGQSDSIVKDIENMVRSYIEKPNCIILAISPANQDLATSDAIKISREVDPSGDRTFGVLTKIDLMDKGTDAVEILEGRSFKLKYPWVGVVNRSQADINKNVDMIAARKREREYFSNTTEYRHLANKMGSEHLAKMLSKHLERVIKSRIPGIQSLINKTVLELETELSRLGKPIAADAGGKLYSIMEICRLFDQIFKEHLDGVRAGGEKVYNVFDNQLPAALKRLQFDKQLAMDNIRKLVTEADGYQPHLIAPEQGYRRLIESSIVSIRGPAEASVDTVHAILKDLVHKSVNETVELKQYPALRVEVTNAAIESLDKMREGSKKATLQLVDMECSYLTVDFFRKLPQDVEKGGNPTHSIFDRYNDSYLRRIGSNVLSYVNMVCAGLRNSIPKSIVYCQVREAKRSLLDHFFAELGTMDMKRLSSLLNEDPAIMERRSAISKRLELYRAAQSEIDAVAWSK
# [3] = target: T3, ALA1 Loop1 (151–329 aa) (Arabidopsis thaliana, UniProt P98204); experiment: as above
# T3 sequence (P98204 151-329): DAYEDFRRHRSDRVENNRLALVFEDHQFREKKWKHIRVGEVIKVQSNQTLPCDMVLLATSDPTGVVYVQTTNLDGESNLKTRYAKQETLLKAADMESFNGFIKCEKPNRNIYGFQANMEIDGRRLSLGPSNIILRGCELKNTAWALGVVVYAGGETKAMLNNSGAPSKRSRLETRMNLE
# [4] = target: T2, DRP1A; experiment: bio-layer interferometry, POPC background subtracted; conditions: 3% lipid in POPC liposomes; HEPES pH 7.5, 100 mM NaCl
# [5] = target: T1, ALA1 Loop2 (410–914 aa); experiment: bio-layer interferometry, liposome-loaded APS sensor
pKd [2],pKd [3],pKd [5],SMILES,"bio-layer interferometry, POPC background subtracted [1]","bio-layer interferometry, POPC background subtracted [4]"
–,–,–,CCCCCCCC/C=C\CCCCCCCC(=O)OC[C@H](COP(=O)(O)O[C@H]1[C@H](O)[C@@H](OP(=O)(O)O)[C@H](O)[C@@H](O)[C@H]1O)OC(=O)CCCCCCC/C=C\CCCCCCCC [PI5P],"highest near-steady-state binding was observed with PS, PI4P and PI5P liposomes",–
5.91,–,–,"CCCCCCCC/C=C\CCCCCCCC(=O)OC[C@H](COP(=O)(O)O[C@@H]1[C@H](O)[C@H](O)[C@@H](OP(=O)(O)O)[C@H](OP(=O)(O)O)[C@H]1O)OC(=O)CCCCCCC/C=C\CCCCCCCC [PI(4,5)P2]",–,–
–,5.22,5.66,CCCCCCCC/C=C\CCCCCCCC(=O)OC[C@H](COP(=O)(O)O[C@H]1[C@H](O)[C@@H](O)[C@H](OP(=O)(O)O)[C@@H](O)[C@H]1O)OC(=O)CCCCCCC/C=C\CCCCCCCC [PI4P],–,followed by weaker binding to PI4P and PS liposomes
–,–,–,CCCCCCCC/C=C\CCCCCCCC(=O)OC[C@H](COP(=O)(O)OC[C@H](N)C(=O)O)OC(=O)CCCCCCC/C=C\CCCCCCCC [PS],"highest near-steady-state binding was observed with PS, PI4P and PI5P liposomes",followed by weaker binding to PI4P and PS liposomes
